Legend:
[1] = biological target: T1, precorrin-6x reductase (Sinorhizobium sp, UniProt P21920); test: Reaction catalysed by precorrin-6x reductase, cofactor dependence; assay type: biochemical, Pseudomonas denitrificans
T1 construct: the amino-terminal methionine is definitely excised in vivo by methionine aminopeptidase; made in house; host or cells: Pseudomonas denitrificans SC510 Rif^r carrying plasmid pXL253 (8.7-kb EcoRI fragment, cobF to cobM, in pKT230)
Experimental: The fractions containing precorrin-6x reductase activity (approximately 0.05 unit, U) are incubated at 30° C. for 60 min in 0.1 M Tris-HCl buffer pH 7.7 (250 μl) in the presence of 1 mM EDTA, 500 μM NADPH, 25 μM [methyl-^3H]SAM (80 μCi/μmol), 4 μM precorrin-6x (Thibaut et al., 1990) and partially purified dihydroprecorrin-6x methylase (0.5 U) (see preparation below). The reaction is then stopped by heating to 80° C. for 5 min and, after centrifugation at 5000×g for 5 min, the supernatant is injected onto a DEAE-Sephadex column (containing 200 μl of gel). The column is then washed extensively with the Tris-HCl buffer, and the compounds bound are eluted with 1 M HCl (4 ml). The radio activity in this eluent is counted by liquid scintillation counting. The unit of enzymatic activity is defined as the quantity of enzyme necessary for reducing 1 nmol of precorrin-6x per h under these conditions.
When the purified enzyme (or an active fraction during purification, or even a crude enzyme extract) is incubated under the conditions of the assay of activity, but in the absence of SAM and of dihydroprecorrin-6x methylase, the product of the reaction can then be purified by HPLC in the system described for the purification of precorrin-6x (see Example 6.1.4.d). […]

[2] = biological target: T2, cobalamin-5′-phosphate synthase (Sinorhizobium sp, UniProt P29936); test: Specificity of cobalamin-5′-phosphate synthase; assay type: biochemical, Pseudomonas denitrificans; details: partially purified enzyme
T2 construct: made in house; host or cells: Pseudomonas denitrificans SC510 Rif^r carrying plasmid pXL1490B (own cobV gene amplified)
Experimental: a) Assay of GDP-cobinamide: α-ribazole-5′-phosphate cobinamidephosphotransferase (or cobalamin-5′-phosphate synthase) activity. This example illustrates the assay of an activity directly linked to the pathway of biosynthesis of cobalamines. The enzyme in question is cobalamin-5′-phosphate synthase. The fractions containing the activity (approximately 5 to 10 units) are incubated in darkness at 30° C. in […] buffer pH 9.0 (500 μl) in the presence of 1 mM EDTA, 12.5 mM MgCl2, 50 μM α-ribazole 5′-phosphate and 20 μM GDP-cobinamide [in 5′-deoxy-5′-adenosyl (Ado) or coenzyme form]. After 15 min of incubation, 20 mM potassium cyanide (500 μl) is added and the solution is heated to 80° C. for 10 min. After centrifugation to remove the precipitated matter, the vitamin B12 5′-phosphate present in the supernatant is assayed as described in Example 9. One unit of cobalamin-5′-phosphate synthase is defined as the quantity of enzyme necessary for generating 1 nmol of cobalamine 5′-phosphate per h under the conditions described above.
This experiment illustrates how a P. denitrificans enzymatic activity participating in the pathway of biosynthesis of cobalamines of P. denitrificans can be partially purified. Using the assay described above, the purification of cobalamin 5′-phosphate synthase is carried out. For this purpose, in a typical purification experiment, wet cells (10 g) of strain SC510 Rif^r, into which plasmid pXL1490B has been introduced as described previously, are used. Plasmid pXL1490B is described in FIG. 38: this plasmid corresponds to the 3.85-kb SstI-SstI-BamHI fragment cloned into PKT230. This plasmid carries the P. denitrificans cobU and cobV genes. […] The SC510 Rif^r pXL1490B cells are obtained by culture in PS4 medium supplemented with lividomycin, as described above. […]
c) Specificity of cobalamin-5′-phosphate synthase. […] Intracellular α-ribazole 5′-phosphate and α-ribazole concentrations of 30 and 700 μM, respectively, were measured by HPLC during the production of cobalamins by SC510 Rif^r in PS4 medium under the culture conditions described in Example 6.1.5a).

[3] = biological target: T3, P. denitrificans NN:DMBI PRT (Sinorhizobium sp, UniProt P29935); test: Specificity of NN:DMBI PRT for benzimidazole substrates; assay type: biochemical, Pseudomonas denitrificans; details: NaMN concentration fixed at 2 mM
T3 construct: the amino-terminal methionine is definitely excised in vivo by methionine aminopeptidase; made in house; host or cells: Pseudomonas denitrificans SC510 Rif^r carrying plasmid pXL1490B (cobU and cobV amplified)
T3 sequence (P29935 2-338 limits assumed): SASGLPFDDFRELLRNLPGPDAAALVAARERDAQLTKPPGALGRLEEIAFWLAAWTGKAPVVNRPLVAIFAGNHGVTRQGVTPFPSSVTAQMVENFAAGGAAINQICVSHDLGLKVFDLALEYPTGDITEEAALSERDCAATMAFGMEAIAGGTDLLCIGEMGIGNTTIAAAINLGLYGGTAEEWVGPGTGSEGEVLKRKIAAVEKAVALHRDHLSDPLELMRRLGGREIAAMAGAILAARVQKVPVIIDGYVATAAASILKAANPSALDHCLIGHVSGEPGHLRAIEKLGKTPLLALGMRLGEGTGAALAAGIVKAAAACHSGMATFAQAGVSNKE
Experimental: a) Assay of Nicotinate-nucleotide:dimethylbenzimidazole phosphoribosyltransferase activity (FIG. 5, reaction 5). This example illustrates the assay of an enzymatic activity directly linked to the pathway of biosynthesis of cobalamins. The enzyme in question is nicotinate-nucleotide:dimethylbenzimidazole phosphoribosyl-transferase (NN:DMBI PRT) (EC 2.4.2.21). The fractions containing NN:DMBI PRT activity (approximately 5 units) are incubated at 30° C. for 8 min in 0.1 M glycine-NaOH buffer pH 9.7 (500 μl) in the presence of 1 mM NaMN (nicotinic acid mononucleotide) and 10 μM DMBI. The reaction is then stopped by heating to 80° C. for 10 min, the reaction mixture is diluted with water (4 volumes) and this solution (100 μl) is injected onto a 15-cm Nucleosil 5-C8 HPLC column eluted with a 0.1 M potassium phosphate pH 2.9/acetonitrile (93:7) mixture at a flow rate of 1 ml/min. The α-ribazole 5′-phosphate is detected and quantified by fluorimetry (excitation: 260 nm; emission >370 nm). The unit of enzymatic activity is defined as the quantity of enzyme necessary for generating 1 nmol of α-ribazole 5′-phosphate per hour under these conditions.
d) Specificity of NN:DBI PRT for DBI. […]

[4] = biological target: T4, Methanobacterium ivanovii SUMT (Methanobacterium ivanovii, UniProt P29564); test: Catalytic properties of purified M. ivanovii SUMT; assay type: biochemical
T4 construct: endogenous in cells; host or cells: Methanobacterium ivanovii DSM2611 (enzyme purified to homogeneity from the natural organism)
T4 sequence (P29564 2-231 limits assumed): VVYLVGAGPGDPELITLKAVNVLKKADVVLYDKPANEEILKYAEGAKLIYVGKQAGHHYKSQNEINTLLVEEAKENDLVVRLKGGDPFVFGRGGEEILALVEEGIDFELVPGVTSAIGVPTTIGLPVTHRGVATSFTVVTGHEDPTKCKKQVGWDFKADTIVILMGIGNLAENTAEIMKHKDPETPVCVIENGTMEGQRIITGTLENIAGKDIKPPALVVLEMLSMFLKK
Experimental: Methanobacterium ivanovii strain DSM2611 is cultured as described (Souillard et al., 1988). Wet cells (12 g) are obtained. The latter are resuspended in 0.1 M Tris-HCl buffer pH 7.6 (80 ml) containing 5 mM DTT and 1 mM EDTA, and sonicated for 1 h 30 min at 4° C. and then centrifuged for 1 h at 50,000 g. Free tetrapyrrole compounds are then cleared from the extract by passage through a small DEAE-Sephadex A25 column set up in the same buffer. The proteins precipitating at between 55 and 75% ammonium sulphate saturation are solubilised in a 0.1 M Tris-HCl pH 7.5, 0.5 mM DTT, 1.7 M ammonium sulphate buffer and injected onto a Phenyl-Superose HR 10/10 (Pharmacia France/SA) column eluted with a decreasing gradient (1.7 M to 0 M with respect to ammonium sulphate). The active fractions are passed through a Sephadex G-25 column equilibrated with 0.1 M Tris-HCl pH 7.5, 0.5 mM DTT, 25% glycerol buffer (buffer A), then injected onto a Mono Q HR 5/5 (Pharmacia France SA) column equilibrated with buffer A and eluted with a KCl gradient of 0 to 0.3 M; this step is repeated a second time under the same conditions. Gel permeation chromatography of the active fraction of the preceding step on Bio-Sil TSK-250 (BioRad France SA) enables a protein which is homogeneous in SDS-PAGE and in RP-HPLC (C-18 pBondapak) to be obtained. The different steps of purification, with their yield, as well as their purification factor, are described in the table below.
As shown in this table, the total purification factor is more than 4,500. Some properties of the pure enzyme have been studied according to methods already described (Blanche et al., 1989). This enzyme does indeed have SUMT activity, i.e. it does indeed catalyse the SAM-dependant transfer of two methyl groups at C-2 and at C-7 of uro'gen III.
The Vmax of M. ivanovii SUMT was determined. It is 1537 U/mg of proteins. This value is greater than that found for P. denitrificans SUMT, already determined under optimal conditions for the reaction (taking account of its inhibition by uro'gen III), 489 U/mg of proteins (Blanche et al., 1989).

T2 sequence (P29936 whole entry): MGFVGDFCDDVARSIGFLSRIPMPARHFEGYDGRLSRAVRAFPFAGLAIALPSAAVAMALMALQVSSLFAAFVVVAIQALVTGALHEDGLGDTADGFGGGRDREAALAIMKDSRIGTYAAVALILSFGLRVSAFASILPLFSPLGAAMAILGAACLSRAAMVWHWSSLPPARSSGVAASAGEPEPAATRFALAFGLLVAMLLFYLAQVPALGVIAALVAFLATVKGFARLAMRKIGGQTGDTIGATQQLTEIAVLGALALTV
T1 sequence (P21920 2-261): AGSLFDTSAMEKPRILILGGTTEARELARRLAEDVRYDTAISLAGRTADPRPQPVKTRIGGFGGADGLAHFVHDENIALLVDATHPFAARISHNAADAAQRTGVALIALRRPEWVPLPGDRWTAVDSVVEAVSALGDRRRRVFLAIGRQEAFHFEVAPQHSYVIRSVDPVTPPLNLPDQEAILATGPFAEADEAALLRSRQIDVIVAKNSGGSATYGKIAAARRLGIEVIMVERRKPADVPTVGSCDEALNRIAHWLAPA

NC(=O)C1=CN([C@@H]2O[C@H](COP(=O)(O)OP(=O)(O)OC[C@H]3O[C@@H](n4cnc5c(N)ncnc54)[C@H](OP(=O)(O)O)[C@@H]3O)[C@@H](O)[C@H]2O)C=CC1 [NADPH]
cofactor for reduction of precorrin-6x [1]: strictly NADPH-dependant

Cc1cc2ncn([C@H]3O[C@H](CO)[C@@H](O)[C@H]3O)c2cc1C [α-ribazole]
Km [2]: 7.8 µM

c1ccc2[nH]cnc2c1 [Benzimidazole]
reaction rate compared to the natural substrate (5,6-dimethylbenzimidazole) [3]: 157%

NC(=O)C1=CN([C@@H]2O[C@H](COP(=O)(O)OP(=O)(O)OC[C@H]3O[C@@H](n4cnc5c(N)ncnc54)[C@H](O)[C@@H]3O)[C@@H](O)[C@H]2O)C=CC1 [NADH]
cofactor for reduction of precorrin-6x [1]: NADPH cannot be replaced by NADH

Cc1ccc2nc[nH]c2c1 [5-methylbenzimidazole]
reaction rate compared to the natural substrate (5,6-dimethylbenzimidazole) [3]: 92%

Cc1cc2ncn([C@H]3O[C@H](COP(=O)(O)O)[C@@H](O)[C@H]3O)c2cc1C [α-ribazole 5′-phosphate]
Km [2]: ~2.7 µM

GDP-cobinamide [(Ado)GDP-cobinamide]
Km [2]: 0.9 µM

B1: M. ivanovii SUMT: SAM:uro'gen III methyltransferase purified from Methanobacterium ivanovii, encoded by corA (protein)
chain: MVVYLVGAGPGDPELITLKAVNVLKKADVVLYDKPANEEILKYAEGAKLIYVGKQAGHHYKSQNEINTLLVEEAKENDLVVRLKGGDPFVFGRGGEEILALVEEGIDFELVPGVTSAIGVPTTIGLPVTHRGVATSFTVVTGHEDPTKCKKQVGWDFKADTIVILMGIGNLAENTAEIMKHKDPETPVCVIENGTMEGQRIITGTLENIAGKDIKPPALVVLEMLSMFLKK
Vmax [4]: 1537 U/mg of proteins
